Measured values as given in article PMC6934184, “Selective DNA-PKcs inhibition extends the therapeutic index of localized radiotherapy and chemotherapy” (The Journal of Clinical Investigation, 2019).

Molecular target: T1, RET Y791F (Homo sapiens, UniProt P07949, Y791F)
T1 construct: purchased Thermo Fisher Scientific (Life Technologies) SelectScreen
Experiment: SelectScreen Z'LYTE
Type: biochemical
Protocol: The in vitro kinase selectivity of NU5455 was determined using the SelectScreen Broad Assay Panel (Thermo Fisher Scientific) involving activity and binding assays (Supplemental Table 1). […] Class IA PI3Ks were measured using the p85α subunit.
Kinase [ATP] % Assay Kinase [ATP] % Assay Kinase [ATP] % Assay Kinase [ATP] % Assay […]
RET Y791F Km app 9.2 Z PIK3CG (p110 gamma) Km app 2.9 A KIT D816H n/a -0.2 L TAOK2 (TAO1) Km app -5.1 Z […]
SGK (SGK1) Km app 8.5 Z MAP4K2 (GCK) Km app 2.7 Z TLK2 n/a -0.3 L STK38 (NDR) n/a -5.9 L
MERTK (cMER) Km app 8.3 Z CDK2/cyclin A Km app 2.7 Z TGFBR1 (ALK5) n/a -0.4 L MATK (HYL) Km app -6.3 Z
FYN Km app 8.3 Z EPHA1 Km app 2.7 Z CLK3 Km app -0.5 Z ABL1 E255K Km app -6.6 Z
TEC n/a 8.1 L CDK2/cyclin E1 n/a 2.7 L MAP3K14 (NIK) n/a -0.5 L STK17A (DRAK1) n/a -6.6 L
KIT V654A n/a 8.1 L TESK2 n/a 2.7 L AKT3 (PKB gamma) Km app -0.5 Z JAK2 JH1 JH2 Km app -6.7 Z
ROS1 Km app 8.0 Z SPHK1 Km app 2.7 A MAP3K9 (MLK1) Km app -0.5 Z PRKACB (PRKAC beta) n/a -6.8 L
FGFR3 K650E Km app 7.9 Z AMPK A2/B1/G1 Km app 2.6 Z IKBKB (IKK beta) Km app -0.6 Z PDGFRA (PDGFR alpha) Km app -6.8 Z
RAF1 (cRAF) Y340D Y341D 100 7.9 Z DYRK3 Km app 2.6 Z CAMK2A (CaMKII alpha) Km app -0.6 Z NEK9 Km app -7.2 Z
PI4KA (PI4K alpha) 10 7.8 A CSNK1D (CK1 delta) Km app 2.6 Z PRKCB1 (PKC beta I) Km app -0.7 Z PDK1 Km app -7.3 Z
HIPK2 Km app 7.8 Z ACVR2A n/a 2.5 L TTK n/a -0.7 L RPS6KB1 (p70S6K) Km app -7.8 Z […]

T1 sequence (P07949 29-1114 Y791F): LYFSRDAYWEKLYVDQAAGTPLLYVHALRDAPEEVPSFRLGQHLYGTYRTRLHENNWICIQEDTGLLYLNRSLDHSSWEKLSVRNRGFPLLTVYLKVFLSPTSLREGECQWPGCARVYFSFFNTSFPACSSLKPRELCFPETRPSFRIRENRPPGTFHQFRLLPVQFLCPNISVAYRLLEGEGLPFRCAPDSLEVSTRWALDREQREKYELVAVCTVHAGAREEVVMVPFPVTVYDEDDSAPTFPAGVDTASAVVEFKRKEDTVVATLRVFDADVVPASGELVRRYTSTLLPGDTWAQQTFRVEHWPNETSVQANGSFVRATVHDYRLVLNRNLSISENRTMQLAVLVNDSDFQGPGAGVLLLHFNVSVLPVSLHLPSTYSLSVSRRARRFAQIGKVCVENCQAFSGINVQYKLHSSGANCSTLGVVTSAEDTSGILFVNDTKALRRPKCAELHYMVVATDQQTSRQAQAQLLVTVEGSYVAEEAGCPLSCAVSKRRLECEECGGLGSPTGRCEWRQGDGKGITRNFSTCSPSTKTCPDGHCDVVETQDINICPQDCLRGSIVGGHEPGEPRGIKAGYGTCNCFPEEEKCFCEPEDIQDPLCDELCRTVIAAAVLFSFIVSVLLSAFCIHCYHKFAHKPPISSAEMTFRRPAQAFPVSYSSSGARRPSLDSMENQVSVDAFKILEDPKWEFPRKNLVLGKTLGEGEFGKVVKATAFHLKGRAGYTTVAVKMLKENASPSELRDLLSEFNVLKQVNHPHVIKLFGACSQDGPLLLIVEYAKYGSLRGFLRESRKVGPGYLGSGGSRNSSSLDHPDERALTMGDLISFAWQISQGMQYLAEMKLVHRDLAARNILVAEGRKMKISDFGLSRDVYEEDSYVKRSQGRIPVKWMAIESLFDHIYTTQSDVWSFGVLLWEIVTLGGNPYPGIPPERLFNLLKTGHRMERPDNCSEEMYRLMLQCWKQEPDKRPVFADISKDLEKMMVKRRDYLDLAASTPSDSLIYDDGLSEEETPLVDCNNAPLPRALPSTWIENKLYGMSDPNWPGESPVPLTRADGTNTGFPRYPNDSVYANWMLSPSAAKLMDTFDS

## CN(C(=O)CN1CCOCC1)c1ccc2sc3c(-c4cccc5c(=O)cc(N6CC7CCC(C6)O7)oc45)cccc3c2c1 [NU5455]
  inhibition at 1 µM: 9.2%
